Experimental findings from patent US20110105457A1, “HETEROCYCLIC COMPOUND HAVING INHIBITORY ACTIVITY ON PI3K” (SHIONOGI & CO., LTD., priority 2008, published 2011) are described below.

PI-3 kinase γ, sequence (P48736 whole entry): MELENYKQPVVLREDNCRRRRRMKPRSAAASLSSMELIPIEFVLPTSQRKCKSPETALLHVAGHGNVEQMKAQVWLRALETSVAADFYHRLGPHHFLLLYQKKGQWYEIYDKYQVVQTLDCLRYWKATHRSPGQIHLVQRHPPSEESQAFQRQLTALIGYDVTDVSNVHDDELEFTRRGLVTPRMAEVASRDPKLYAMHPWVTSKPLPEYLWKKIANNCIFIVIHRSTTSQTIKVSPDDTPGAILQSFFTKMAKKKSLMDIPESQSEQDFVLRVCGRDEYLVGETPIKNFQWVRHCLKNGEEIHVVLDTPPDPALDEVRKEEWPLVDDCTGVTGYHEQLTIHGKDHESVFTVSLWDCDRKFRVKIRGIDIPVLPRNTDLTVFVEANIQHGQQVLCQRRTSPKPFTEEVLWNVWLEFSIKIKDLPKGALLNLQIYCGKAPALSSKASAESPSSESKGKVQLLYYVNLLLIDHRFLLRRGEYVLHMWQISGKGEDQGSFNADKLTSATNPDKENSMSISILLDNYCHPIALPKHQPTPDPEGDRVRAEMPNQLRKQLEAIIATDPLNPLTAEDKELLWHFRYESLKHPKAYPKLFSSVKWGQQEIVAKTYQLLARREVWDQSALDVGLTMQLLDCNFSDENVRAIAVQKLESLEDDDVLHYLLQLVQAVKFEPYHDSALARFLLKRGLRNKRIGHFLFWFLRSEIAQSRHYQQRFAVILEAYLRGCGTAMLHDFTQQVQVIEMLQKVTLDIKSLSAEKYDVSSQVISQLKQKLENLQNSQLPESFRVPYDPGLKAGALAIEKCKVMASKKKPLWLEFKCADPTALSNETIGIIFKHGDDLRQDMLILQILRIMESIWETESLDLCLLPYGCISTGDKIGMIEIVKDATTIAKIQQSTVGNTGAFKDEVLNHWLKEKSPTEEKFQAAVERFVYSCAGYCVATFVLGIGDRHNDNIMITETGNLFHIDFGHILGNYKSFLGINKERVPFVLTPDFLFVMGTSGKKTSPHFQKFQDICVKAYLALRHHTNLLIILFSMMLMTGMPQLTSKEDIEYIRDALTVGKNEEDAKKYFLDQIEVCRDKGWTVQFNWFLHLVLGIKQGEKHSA

The target of the test is PI-3 kinase γ (Homo sapiens, UniProt P48736). In words: PI3Kγ inhibitory activity, PI3-kinase HTRF assay (Millipore). The test is classed as biochemical. The conditions noted are these: 0.5 h; compound 50 μM; read-out: Inhibition ratio % (50 μM). How it is done:
(Method) The PI3Kγ inhibitory activity of a compound was evaluated using PI3-kinase HTRF™ assay (Millipore) according to the following procedure.
To each well of a testing plate was added 5 μL of a compound solution comprising 10% DMSO (200 μM as the concentration of the compound), 5 μL of 40 μM phosphatidylinositol (4,5)-bisphosphate/20 mM MgCl2/10 mM DTT, and 5 μL of 80 μg/mL PI-3 kinase γ/10 mM MgCl2/5 mM DTT, and then stood for 10 minutes.
Then, 5 μL of 40 μM ATP/10 mM MgCl2/5 mM DTT was added thereto. After reacting for 30 minutes at room temperature, 5 μL of a solution comprising EDTA and biotinylated phosphatidylinositol (3,4,5)-triphosphate was added to quench the reaction.
5 μL of a detection reagent comprising a europium-labeled anti-GST antibody, the GST-tagged PH domain, and allophycocyanin-labeled streptavidin was added thereto. After 18 hours, HTRF (excitation wavelength: 330 nm, measuring wavelengths: 620 nm and 665 nm) was measured.
A value of dividing an amount of fluorescence obtained at the measuring wavelength 665 nm by an amount of fluorescence obtained at 620 nm was defined as an HTRF ratio. The HTRF ratio in the absence of a compound was defined as 100% activity, and the HTRF ratio in the absence of PI-3 kinase γ was defined as 0% activity to calculate an inhibition ratio.
In general terms: TR-FRET usually uses a lanthanide donor and a delayed reading to cut background.
Take `CNC(=O)Nc1cn2nc(Cl)ccc2n1` [Compound I-1]: the inhibition at 50 µM is 72%.

In the case of `CNC(=O)Nc1cn2nc(NC(=O)C3CCCC3)ccc2n1` [Compound I-4], the inhibition at 50 µM amounted to 57%.

For `CNC(=O)Nc1cn2nc(NC(=O)Nc3ccccc3)ccc2n1` [Compound I-5], the inhibition at 50 µM came out at 60%.

As for `CNC(=O)Nc1cn2nc(N3CCCC3=O)ccc2n1` [Compound I-6], the inhibition at 50 µM turned out to be 67%.

Take `CNC(=O)Nc1cn2nc(Nc3ccccc3)ccc2n1` [Compound I-7]: the inhibition at 50 µM stood at 77%.

Turning to `CNC(=O)Nc1cn2nc(-c3ccccc3)ccc2n1` [Compound I-9], the inhibition at 50 µM was 82%.

`CCOC(=O)c1ccc2nc(NC(=O)NC)cn2n1` [Compound I-13]: the inhibition at 50 µM amounted to 87%.

Consider `CNC(=O)Nc1cn2nc(C(=O)NCc3ccccc3)ccc2n1` [Compound I-15], for which the inhibition at 50 µM was determined as 74%.

With `CNC(=O)Nc1cn2nc(C(=O)c3cccc(OC)c3)ccc2n1` [Compound I-17], the inhibition at 50 µM worked out at 76%.

Turning to `CNC(=O)Nc1cn2nc(Sc3ccccc3)ccc2n1` [Compound I-18], the inhibition at 50 µM came out at 81%.

For the compound `CNC(=O)Nc1cn2nc(Oc3ccccc3)ccc2n1` [Compound I-19], the inhibition at 50 µM amounted to 65%.

Take `CNC(=O)Nc1cn2nc(Cc3ccccc3)ccc2n1` [Compound I-20]: the inhibition at 50 µM amounted to 62%.

On to `CNC(=O)Nc1cn2nc(COc3cccc(OC)c3)ccc2n1` [Compound I-22], for which the inhibition at 50 µM was 56%.

`COc1cccc(-c2ccc3nc(Nc4ccccc4)cn3n2)c1` [Compound I-27]: the inhibition at 50 µM came to 69%.

In the case of `CNC(=O)Nc1cn2nc(C(=O)N3CCC(C(=O)O)CC3)ccc2n1` [Compound I-32], the inhibition at 50 µM turned out to be 70%.

Turning to `CNC(=O)Nc1cn2nc(C(=O)Nc3cccc(C(=O)O)c3)ccc2n1` [Compound I-33], the inhibition at 50 µM is 57%.

For the compound `CNC(=O)Nc1cn2nc(-c3cccc(C(=O)OC)c3)ccc2n1` [Compound I-35], the inhibition at 50 µM amounted to 77%.

On to `CNC(=O)Nc1cn2nc(-c3cccc(OC)c3)ccc2n1` [Compound I-36], for which the inhibition at 50 µM is 90%.

`CNC(=O)Nc1cn2nc(-c3ccsc3)ccc2n1` [Compound I-38]: the inhibition at 50 µM was determined as 91%.

For `CNC(=O)Nc1cn2nc(Nc3cccc(OC)c3)ccc2n1` [Compound I-39], the inhibition at 50 µM was found to be 69%.

With `CNC(=O)Nc1cn2nc(C(=O)Nc3ccc(O)cc3)ccc2n1` [Compound I-41], the inhibition at 50 µM amounted to 83%.

In the case of `CNC(=O)Nc1cn2nc(C(=O)Nc3ccccc3)ccc2n1` [Compound I-43], the inhibition at 50 µM worked out at 79%.

For the compound `CNC(=O)Nc1cn2nc(C(=O)NCc3ccc(OC)cc3)ccc2n1` [Compound I-44], the inhibition at 50 µM was found to be 57%.

Consider `CNC(=O)Nc1cn2nc(C(=O)Nc3ccc4[nH]ccc4c3)ccc2n1` [Compound I-45], for which the inhibition at 50 µM came out at 74%.

For `CNC(=O)Nc1cn2nc(C(=O)Nc3ccc(Cl)cc3)ccc2n1` [Compound I-46], the inhibition at 50 µM was 76%.

As for `CCCNC(=O)c1ccc2nc(NC(=O)NC)cn2n1` [Compound I-48], the inhibition at 50 µM is 83%.

With `CNC(=O)Nc1cn2nc(C(=O)NCCOC)ccc2n1` [Compound I-49], the inhibition at 50 µM turned out to be 64%.

`CNC(=O)Nc1cn2nc(C(=O)NC3CCCC3)ccc2n1` [Compound I-50]: the inhibition at 50 µM stood at 89%.

Turning to `CNC(=O)Nc1cn2nc(C(=O)Nc3ccc(C(=O)O)cc3)ccc2n1` [Compound I-52], the inhibition at 50 µM was 80%.

With `CNC(=O)Nc1cn2nc(Nc3cccc(OCc4ccccc4)c3)ccc2n1` [Compound I-53], the inhibition at 50 µM was found to be 74%.

As to `CNC(=O)Nc1cn2nc(Nc3ccc(OC)cc3)ccc2n1` [Compound I-54], the inhibition at 50 µM was determined as 85%.

As to `CNC(=O)Nc1cn2nc(-c3cccc(C(C)=O)c3)ccc2n1` [Compound I-55], the inhibition at 50 µM was found to be 85%.

As to `CNC(=O)Nc1cn2nc(-c3ccc(C(C)=O)cc3)ccc2n1` [Compound I-56], the inhibition at 50 µM stood at 77%.

For the compound `CNC(=O)Nc1cn2nc(-c3cccc(N)c3)ccc2n1` [Compound I-57], the inhibition at 50 µM was found to be 84%.

Turning to `CNC(=O)Nc1cn2nc(-c3cc4ccccc4s3)ccc2n1` [Compound I-58], the inhibition at 50 µM came to 70%.

For the compound `CNC(=O)Nc1cn2nc(-c3cccc(Cl)c3)ccc2n1` [Compound I-59], the inhibition at 50 µM came to 52%.

For `CNC(=O)Nc1cn2nc(-c3ccc(Cl)cc3)ccc2n1` [Compound I-60], the inhibition at 50 µM is 64%.

On to `CNC(=O)Nc1cn2nc(-c3ccc(OC)cc3)ccc2n1` [Compound I-63], for which the inhibition at 50 µM was 91%.

For `CNC(=O)Nc1cn2nc(-c3cccc(C)c3)ccc2n1` [Compound I-65], the inhibition at 50 µM worked out at 79%.

As for `CNC(=O)Nc1cn2nc(-c3ccc(C)cc3)ccc2n1` [Compound I-66], the inhibition at 50 µM was 77%.

Consider `CNC(=O)Nc1cn2nc(-c3ccc(Cl)c(Cl)c3)ccc2n1` [Compound I-67], for which the inhibition at 50 µM was determined as 72%.

`CNC(=O)Nc1cn2nc(-c3ccc(-c4ccccc4)cc3)ccc2n1` [Compound I-68]: the inhibition at 50 µM was determined as 90%.

`CNC(=O)Nc1cn2nc(-c3cccc(CO)c3)ccc2n1` [Compound I-69]: the inhibition at 50 µM came to 89%.

On to `CNC(=O)Nc1cn2nc(/C=C/c3ccccc3)ccc2n1` [Compound I-70], for which the inhibition at 50 µM was 78%.

In the case of `CNC(=O)Nc1cn2nc(-c3ccc(C#N)cc3)ccc2n1` [Compound I-71], the inhibition at 50 µM is 69%.

Regarding `CNC(=O)Nc1cn2nc(-c3ccc(S(C)(=O)=O)cc3)ccc2n1` [Compound I-72], the inhibition at 50 µM was found to be 66%.

As to `CNC(=O)Nc1cn2nc(-c3ccc(NS(C)(=O)=O)cc3)ccc2n1` [Compound I-73], the inhibition at 50 µM was found to be 70%.

As to `CNC(=O)Nc1cn2nc(-c3cccc(NS(C)(=O)=O)c3)ccc2n1` [Compound I-74], the inhibition at 50 µM was 89%.

As to `CNC(=O)Nc1cn2nc(-c3ccoc3)ccc2n1` [Compound I-76], the inhibition at 50 µM stood at 72%.

As for `CNC(=O)Nc1cn2nc(-c3ccc(C(N)=O)cc3)ccc2n1` [Compound I-77], the inhibition at 50 µM came to 64%.

As to `CNC(=O)Nc1cn2nc(C3=CCCC3)ccc2n1` [Compound I-79], the inhibition at 50 µM amounted to 81%.

As for `CNC(=O)Nc1cn2nc(-c3ccc(NC(=O)OC)cc3)ccc2n1` [Compound I-80], the inhibition at 50 µM is 57%.

Regarding `CNC(=O)Nc1cn2nc(-c3cccc(C(=O)N(C)C)c3)ccc2n1` [Compound I-82], the inhibition at 50 µM was 79%.

Regarding `CNC(=O)Nc1cn2nc(Nc3cccc(O)c3)ccc2n1` [Compound I-85], the inhibition at 50 µM came out at 111%.

Consider `CNC(=O)Nc1cn2nc(C(=O)Nc3ccccc3OCCN)ccc2n1` [Compound I-98], for which the inhibition at 50 µM was 72%.

As for `CNC(=O)Nc1cn2nc(NC(C)=O)ccc2n1` [Compound I-101], the inhibition at 50 µM came out at 59%.

In the case of `CNC(=O)Nc1cn2nc(NC(=O)c3cccc(Cl)c3)ccc2n1` [Compound I-103], the inhibition at 50 µM turned out to be 60%.

Regarding `CNC(=O)Nc1cn2nc(NC(=O)c3ccccc3)ccc2n1` [Compound I-104], the inhibition at 50 µM was 55%.

As to `CNC(=O)Nc1cn2nc(Nc3cccc(C(=O)OC)c3)ccc2n1` [Compound I-105], the inhibition at 50 µM is 73%.
